Measured values published in patent publication US11470844B2, “Vespidae wasp repellent” (KINP CO., LTD, priority 2015, dated 2022).

Tests used:
[1] = system: Vespa analis insularis (Fabricius) worker; assay: Black ball nest disturbance, Experiment 1; format: in vivo
Description: The experiment was conducted with utilizing a nest of Vespa analis insularis (Fabricius) built under an awning of a private house in Iida-cho Takamatsu City on Sep. 9, 2015.
A black ball was hung on the tip of a fishing rod having a length of 11 m, and distilled water was sprayed on the entire surface of the black ball. While the surface of the nest was tapped with the tip of the fishing rod once every about 10 seconds, the worker's action against the black ball was taken and recorded with a video camera for 5 minutes. When the nest was hit, the black ball was in close proximity to the nest as the black ball was about to touch the nest, and when the nest was not hit, the black ball was kept still in the air about 50 cm away from the nest surface. The thus recorded video footage was replayed, and the number of worker which flew to and alighted on the hemisphere surface of the black ball for attack was counted. Similar experiments were conducted with respect to the black ball prepared by spraying benzyl alcohol on the entire surface of a new black ball as “Test liquid example 1” and the black ball prepared by spraying benzyl alcohol on the entire surface of the control example black ball on which alarm pheromone was adsorbed by the worker's attack as “Test liquid example 2”. In addition, a picture of the video footage 234 seconds after the start of the nest disturbance is shown as FIG. 3. FIG. 3A is an image of the control example that distilled water was used, FIG. 3B is an image of the Test liquid example 1, and FIG. 3C is an image of the Test liquid example 2.

Apis mellifera worker = conditions: in vivo
Description: The experiment involving a Apis mellifera worker which was sucking nectar from a flower of Abelia planted at a bank of Noda pond located at Fuseishi-cho, Takamatsu City, Kagawa Prefecture was conducted on Jul. 22 to 24, 2015.
With respect to the experimental condition, first, distilled water was sprayed once on the worker which was sucking nectar or moving from a flower to a flower by using a sprayer, and then the inventors observed the behavior for 30 seconds. Next, benzyl alcohol, 2-phenylethanol or benzyl acetate was sprayed once on the same worker by using the sprayer having the same mass and the same volume, and then the inventors observed the behavior up to 30 seconds. The test liquid was judged to be “effective” in the case where the Apis mellifera worker on which the test liquid was sprayed did different action than normal activity to visit a flower during the observation time.

Vespa mandarinia worker [2] = assay: Spray on Vespa mandarinia worker collecting sawthorn oak sap; format: in vivo, Vespa mandarinia japonica Radoszkowski; conditions: 10 workers; for behavior of workers after spraying: immediately started flapping, same time or a few seconds later; for Number of worker Effective / Number of worker No response: sprayed one time, observed up to 1 minute
Description: The experiment was conducted on a Vespa mandarinia japonica Radoszkowski worker which flew to a sawthorn oak tree bleeding sap and which collected the sap in Kagawa Prefecture Kinbuchi Forest Park in Takamatsu City Kagawa Prefecture from June to October, 2014 and from June to July, 2015.
Specifically, 100 mL of distilled water was enclosed in a plastic sprayer having a volume of 200 mL to be used as a control sprayer, and 100 mL of benzyl alcohol was enclosed in the same material and the same volume sprayer to be used as a test liquid sprayer. First, distilled water was sprayed one time to one Vespa mandarinia worker which was collecting sap at a sap bleeding part of a trunk of a sawthorn oak tree by using a control sprayer. […] Then, benzyl alcohol was sprayed one time by using a test liquid sprayer. Next, the workers were observed up to 1 minute. With respect to 2-phenylethanol, 3-phenylpropanol, 1-phenyl-2-prpanol and benzyl acetate, the spray test to a Vespa mandarinia worker collecting a sawthorn oak sap was conducted in the same condition.

Vespa mandarinia worker [3] = assay: Black ball nest disturbance, Experiment 2 (new black ball, 30 s vibration); format: in vivo; conditions: for repellent effect: in vivo
Description: In the above-described Experiment 1, it was observed that vibrating the black ball in contact with the nest entrance more strongly induces the attack behavior of the worker rather than vibrating the black ball in the air away from the nest. Accordingly, the attack situation of the worker was investigated by vibrating the black ball in contact with the entrance of the same Vespidae wasp nest used in the above-described Experiment 1 for 30 seconds on Oct. 31, 2014. Specifically, the attack situation of the worker was observed similarly to the above-described Experiment 1 except for using a new black ball without using the black ball on which alarm pheromone was adsorbed even in the case of the test liquid and using 2-phenylethanol or benzyl alcohol as the test liquid by vibrating the black ball in contact with the entrance of the same nest for 30 seconds.
As a result, in the case of the black ball on which distilled water was sprayed, it was difficult to count the total number of the workers which flew to and alighted on the black ball for attack, since the black ball was continued to be attacked by the workers for 150 seconds from the end of the vibration almost without interruption and the number of attacking worker was clearly larger in comparison with the case of the above-described Experiment 1. The inventors therefore counted the number of the worker which could be observed on the hemispherical surface of the black ball from the video image at intervals of 30 seconds from the end of the disturbance. In addition, a picture of the video footage 145 seconds after the end of the nest entrance disturbance is shown as FIG. 1. FIG. 1A is an image of the case where distilled water was used, FIG. 1B is an image of the case where 2-phenylethanol was used, and FIG. 1C is an image of the case where benzyl alcohol was used.

[4] = system: Vespa simillima xanthoptera worker; assay: Black ball nest disturbance, Experiment 2; format: in vivo; conditions: for number of worker on black ball hemispherical surface: new black ball; for repellent effect and action to suppress the aggression: in vivo
Description: A similar experiment to the above-described Example 2(2) was conducted against the same Vespa simillima xanthoptera nest of the above-described Experiment 1 on Oct. 31, 2014. The number of worker on the black spherical hemispherical surface counted every 30 seconds on the basis of the video image is shown in Table 5, and the picture of the video footage after 115 seconds is shown as FIG. 2. FIG. 2A is an image of the case where distilled water was used, FIG. 2B is an image of the case where 2-phenylethanol was used, and FIG. 2C is an image of the case where benzyl alcohol was used.

OCc1ccccc1 [Benzyl alcohol, benzyl alcohol]
number of worker alighted on hemisphere surface of black ball for attack ([1]; 30 s, benzyl alcohol on ball with adsorbed alarm pheromone): 0
number of worker alighted on hemisphere surface of black ball for attack ([1]; 30 s, benzyl alcohol on new black ball): 0
number of worker alighted on hemisphere surface of black ball for attack ([1]; 60 s, benzyl alcohol on ball with adsorbed alarm pheromone): 1
number of worker alighted on hemisphere surface of black ball for attack ([1]; 60 s, benzyl alcohol on new black ball): 0
number of worker alighted on hemisphere surface of black ball for attack ([1]; 90 s, benzyl alcohol on ball with adsorbed alarm pheromone): 0
number of worker alighted on hemisphere surface of black ball for attack ([1]; 90 s, benzyl alcohol on new black ball): 2
number of worker alighted on hemisphere surface of black ball for attack ([1]; 120 s, benzyl alcohol on ball with adsorbed alarm pheromone): 0
number of worker alighted on hemisphere surface of black ball for attack ([1]; 120 s, benzyl alcohol on new black ball): 1
number of worker alighted on hemisphere surface of black ball for attack ([1]; 150 s, benzyl alcohol on ball with adsorbed alarm pheromone): 0
number of worker alighted on hemisphere surface of black ball for attack ([1]; 150 s, benzyl alcohol on new black ball): 0
number of worker alighted on hemisphere surface of black ball for attack ([1]; 180 s, benzyl alcohol on ball with adsorbed alarm pheromone): 0
number of worker alighted on hemisphere surface of black ball for attack ([1]; 180 s, benzyl alcohol on new black ball): 0
number of worker alighted on hemisphere surface of black ball for attack ([1]; 210 s, benzyl alcohol on ball with adsorbed alarm pheromone): 0
number of worker alighted on hemisphere surface of black ball for attack ([1]; 210 s, benzyl alcohol on new black ball): 0
number of worker alighted on hemisphere surface of black ball for attack ([1]; 240 s, benzyl alcohol on ball with adsorbed alarm pheromone): 0
number of worker alighted on hemisphere surface of black ball for attack ([1]; 240 s, benzyl alcohol on new black ball): 0
number of worker alighted on hemisphere surface of black ball for attack ([1]; 270 s, benzyl alcohol on ball with adsorbed alarm pheromone): 0
number of worker alighted on hemisphere surface of black ball for attack ([1]; 270 s, benzyl alcohol on new black ball): 0
number of worker alighted on hemisphere surface of black ball for attack ([1]; 300 s, benzyl alcohol on ball with adsorbed alarm pheromone): 0
number of worker alighted on hemisphere surface of black ball for attack ([1]; 300 s, benzyl alcohol on new black ball): 0
repellent effect ([1]; in vivo): strong repellent effect
Number of worker Effective (Apis mellifera worker): 0/10
Number of worker No response (Apis mellifera worker): 10/10
effect on behavior of / harm to honeybee (Apis mellifera worker): does not effect on the behavior of an Apis mellifera worker
behavior of workers after spraying (Vespa mandarinia worker [2]): flew away from the sap bleeding part
Number of worker Effective (Vespa mandarinia worker [2]): 10/10
Number of worker No response (Vespa mandarinia worker [2]): 0/10
number of worker on hemispherical surface of black ball (Vespa mandarinia worker [3]; 30 s after disturbance): 0
number of worker on hemispherical surface of black ball (Vespa mandarinia worker [3]; 60 s after disturbance): 0
number of worker on hemispherical surface of black ball (Vespa mandarinia worker [3]; 90 s after disturbance): 0
number of worker on hemispherical surface of black ball (Vespa mandarinia worker [3]; 120 s after disturbance): 0
number of worker on hemispherical surface of black ball (Vespa mandarinia worker [3]; 150 s after disturbance): 0
repellent effect (Vespa mandarinia worker [3]): very strong
number of worker on black ball hemispherical surface ([4]; 30 s after disturbance): 0
number of worker on black ball hemispherical surface ([4]; 60 s after disturbance): 0
number of worker on black ball hemispherical surface ([4]; 90 s after disturbance): 0
number of worker on black ball hemispherical surface ([4]; 120 s after disturbance): 0
number of worker on black ball hemispherical surface ([4]; 150 s after disturbance): 0
repellent effect and action to suppress the aggression [4]: strong equivalent to or higher than the repellent effect on Vespa mandarinia

OCCc1ccccc1 [2-Phenylethanol, 2-phenylethanol]
Number of worker Effective (Apis mellifera worker): 0/10
Number of worker No response (Apis mellifera worker): 10/10
behavior of workers after spraying (Vespa mandarinia worker [2]): flew away from the sap bleeding part
Number of worker Effective (Vespa mandarinia worker [2]): 10/10
Number of worker No response (Vespa mandarinia worker [2]): 0/10
number of worker on hemispherical surface of black ball (Vespa mandarinia worker [3]; 30 s after disturbance): 0
number of worker on hemispherical surface of black ball (Vespa mandarinia worker [3]; 60 s after disturbance): 0
number of worker on hemispherical surface of black ball (Vespa mandarinia worker [3]; 90 s after disturbance): 0
number of worker on hemispherical surface of black ball (Vespa mandarinia worker [3]; 120 s after disturbance): 0
number of worker on hemispherical surface of black ball (Vespa mandarinia worker [3]; 150 s after disturbance): 0
repellent effect (Vespa mandarinia worker [3]): very strong
number of worker on black ball hemispherical surface ([4]; 30 s after disturbance): 1
number of worker on black ball hemispherical surface ([4]; 60 s after disturbance): 0
number of worker on black ball hemispherical surface ([4]; 90 s after disturbance): 0
number of worker on black ball hemispherical surface ([4]; 120 s after disturbance): 0
number of worker on black ball hemispherical surface ([4]; 150 s after disturbance): 0
repellent effect and action to suppress the aggression [4]: strong equivalent to or higher than the repellent effect on Vespa mandarinia
